Earlier results in patent publication US12018199B2, “Fire retardant and fire blocking composition for use in forest fires, and method of making same” (priority 2020, dated 2024).
Like-named read-outs stand apart in the source and are kept apart here.

Conditions: in water

Solubility (0 °C): 66.7 g/100 g of water
Solubility (20 °C): 108 g/100 g of water
Solubility (40 °C): 167 g/100 g of water
Solubility (60 °C): 251 g/100 g of water
Solubility (80 °C): 400 g/100 g of water
Solubility (100 °C): 733 g/100 g of water
Structure (SMILES): NC(N)=O [Urea, urea]
